Measured values reported in ChEMBL document CHEMBL1201862, “PubChem BioAssay data set” (2004).
Calls of active or inactive are those of the source.

Legend:
[1] = molecular target: Aryl hydrocarbon receptor (Homo sapiens, UniProt P35869); experiment: Luminescence-based cell-based high throughput dose response assay for activators of the Aryl Hydrocarbon Receptor (AHR). [Related pubchem assays: 2796 (Primary screen (AHR activators in singlicate)), 2845 (Confirmation screen (AHR activators in triplicate)), 434939 (Counterscreen (PXR activators in triplicate)), 2804 (Summary (AHR activators))]; type: ADME
Aryl hydrocarbon receptor, sequence (P35869 whole entry): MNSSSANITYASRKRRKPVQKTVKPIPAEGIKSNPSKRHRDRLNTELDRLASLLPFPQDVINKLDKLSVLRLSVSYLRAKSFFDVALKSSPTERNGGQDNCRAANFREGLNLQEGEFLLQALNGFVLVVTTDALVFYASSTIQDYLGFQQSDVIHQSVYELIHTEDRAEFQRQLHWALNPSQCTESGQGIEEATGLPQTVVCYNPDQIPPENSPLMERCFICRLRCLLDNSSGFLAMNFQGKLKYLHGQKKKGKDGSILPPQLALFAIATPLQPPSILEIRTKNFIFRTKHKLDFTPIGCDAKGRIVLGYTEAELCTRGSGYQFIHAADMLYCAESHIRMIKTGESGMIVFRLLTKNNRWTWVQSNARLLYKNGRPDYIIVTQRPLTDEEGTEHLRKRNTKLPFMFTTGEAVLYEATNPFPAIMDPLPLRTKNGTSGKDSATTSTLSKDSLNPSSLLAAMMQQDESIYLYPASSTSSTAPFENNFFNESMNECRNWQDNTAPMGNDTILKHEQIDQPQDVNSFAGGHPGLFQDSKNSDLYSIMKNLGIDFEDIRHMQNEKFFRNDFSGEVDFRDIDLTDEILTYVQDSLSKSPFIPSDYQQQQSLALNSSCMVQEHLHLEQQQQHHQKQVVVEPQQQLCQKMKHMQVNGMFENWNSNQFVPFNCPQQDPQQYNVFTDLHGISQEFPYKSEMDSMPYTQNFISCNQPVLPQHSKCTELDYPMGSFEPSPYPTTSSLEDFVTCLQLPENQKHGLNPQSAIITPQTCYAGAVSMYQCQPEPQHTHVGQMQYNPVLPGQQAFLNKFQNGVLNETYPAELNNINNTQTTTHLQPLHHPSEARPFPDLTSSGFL

[2] = molecular target: Glyceraldehyde-3-phosphate dehydrogenase (Homo sapiens, UniProt P04406)
Glyceraldehyde-3-phosphate dehydrogenase, sequence (P04406 whole entry): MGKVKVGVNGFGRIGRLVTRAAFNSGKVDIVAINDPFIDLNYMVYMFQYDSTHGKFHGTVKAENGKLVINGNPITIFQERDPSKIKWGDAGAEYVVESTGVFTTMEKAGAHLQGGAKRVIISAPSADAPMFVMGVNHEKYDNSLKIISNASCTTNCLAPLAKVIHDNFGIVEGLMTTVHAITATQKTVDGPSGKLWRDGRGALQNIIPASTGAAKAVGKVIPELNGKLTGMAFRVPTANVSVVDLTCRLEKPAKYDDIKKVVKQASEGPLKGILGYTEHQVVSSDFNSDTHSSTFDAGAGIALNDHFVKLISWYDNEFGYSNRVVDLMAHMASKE

[3] = molecular target: T1, Bcl-2-related protein A1 (Mus musculus, UniProt Q07440); experiment: Bfl-1 binding inhibitors, SAR follow-up, biochemical, fluorescence polarization (AID 1070)
T1 sequence (Q07440 whole entry): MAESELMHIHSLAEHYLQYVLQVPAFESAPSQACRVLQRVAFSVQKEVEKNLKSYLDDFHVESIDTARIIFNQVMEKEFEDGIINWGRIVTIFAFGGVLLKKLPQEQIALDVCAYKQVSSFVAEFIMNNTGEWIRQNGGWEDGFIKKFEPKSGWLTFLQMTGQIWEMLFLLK

[4] = molecular target: T1, Bcl-2-related protein A1; experiment: Bfl-1 inhibitors blocking BH3 peptide binding, confirmation, biochemical, TR-FRET, mouse Bfl-1 (AID 621);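 note: TR-FRET binding of GST-Bfl-1 to FITC-labelled Bid peptide via terbium antibody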
[5] = molecular target: Sphingosine 1-phosphate receptor 2 (Homo sapiens, UniProt O95136); experiment: Dose Response Cell Based Assay for Antagonists of the S1P2 Receptor. [Related pubchem assays: 856, 736 ]; type: functional
Sphingosine 1-phosphate receptor 2, sequence (O95136 whole entry): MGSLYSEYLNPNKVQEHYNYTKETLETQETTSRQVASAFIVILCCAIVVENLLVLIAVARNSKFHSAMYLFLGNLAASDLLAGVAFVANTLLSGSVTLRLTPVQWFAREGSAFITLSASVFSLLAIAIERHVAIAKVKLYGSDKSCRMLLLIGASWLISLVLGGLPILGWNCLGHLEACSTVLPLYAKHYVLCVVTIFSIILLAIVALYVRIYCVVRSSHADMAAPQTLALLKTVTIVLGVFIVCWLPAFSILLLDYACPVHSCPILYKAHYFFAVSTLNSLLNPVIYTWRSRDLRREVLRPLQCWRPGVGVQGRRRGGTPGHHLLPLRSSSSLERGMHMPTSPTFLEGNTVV

[6] = molecular target: Mitogen-activated protein kinase 10 (Homo sapiens, UniProt P53779); experiment: Dose response biochemical screening assay for inhibitors of c-Jun N-Terminal Kinase 3 (JNK3). [Related pubchem assays: 746 ]
Mitogen-activated protein kinase 10, sequence (P53779 whole entry): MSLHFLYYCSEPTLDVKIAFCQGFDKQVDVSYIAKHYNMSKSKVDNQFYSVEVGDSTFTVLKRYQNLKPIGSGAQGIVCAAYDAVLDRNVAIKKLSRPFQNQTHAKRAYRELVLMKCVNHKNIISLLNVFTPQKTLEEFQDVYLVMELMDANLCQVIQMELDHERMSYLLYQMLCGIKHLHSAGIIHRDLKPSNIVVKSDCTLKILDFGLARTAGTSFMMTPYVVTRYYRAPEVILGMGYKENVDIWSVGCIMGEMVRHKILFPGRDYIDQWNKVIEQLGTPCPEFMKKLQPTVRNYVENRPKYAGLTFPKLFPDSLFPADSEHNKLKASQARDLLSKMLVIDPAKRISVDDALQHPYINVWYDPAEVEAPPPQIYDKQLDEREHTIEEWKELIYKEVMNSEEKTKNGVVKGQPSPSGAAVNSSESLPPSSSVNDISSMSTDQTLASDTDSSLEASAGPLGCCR

[7] = molecular target: Luciferin 4-monooxygenase (Photinus pyralis, UniProt P08659); experiment: firefly luciferase enzyme inhibitors, dose response, biochemical, luminescence (AID 1891)
Luciferin 4-monooxygenase, sequence (P08659 whole entry): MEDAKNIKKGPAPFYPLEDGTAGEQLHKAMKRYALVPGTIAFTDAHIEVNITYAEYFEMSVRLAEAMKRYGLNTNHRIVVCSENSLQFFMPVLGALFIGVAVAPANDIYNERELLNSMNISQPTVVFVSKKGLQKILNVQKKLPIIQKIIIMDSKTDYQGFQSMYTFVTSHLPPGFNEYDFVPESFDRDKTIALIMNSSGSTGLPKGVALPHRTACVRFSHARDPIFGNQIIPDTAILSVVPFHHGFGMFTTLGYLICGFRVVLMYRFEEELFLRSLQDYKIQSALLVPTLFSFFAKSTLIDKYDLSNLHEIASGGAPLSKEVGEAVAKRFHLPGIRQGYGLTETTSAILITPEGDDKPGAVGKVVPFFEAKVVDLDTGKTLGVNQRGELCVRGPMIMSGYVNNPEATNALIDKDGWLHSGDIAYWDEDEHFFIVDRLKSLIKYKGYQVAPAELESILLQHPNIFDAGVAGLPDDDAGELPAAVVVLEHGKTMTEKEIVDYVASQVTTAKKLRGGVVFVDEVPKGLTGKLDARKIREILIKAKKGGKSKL

[8] = Luminescence Cell-Based Dose Confirmation HTS to Identify Inhibitors of Platelet Dense Granule Release. [Related pubchem assays: 1663 (Primary HTS), 1678 (Summary of Project)]; type: functional
[9] = molecular target: E3 ubiquitin-protein ligase Mdm2 (Homo sapiens, UniProt Q00987); experiment: enhancers of MDM2-luciferase reporter signal, concentration-effect titration, project on inhibitors of MDM2 ubiquitin ligase, cellular assay, luminescent readout, 384-well plate format (AID 1394); type: functional;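 note: MDM2 E3 inhibitors raise luminescence so EC50 is for signal enhancement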
E3 ubiquitin-protein ligase Mdm2, sequence (Q00987 whole entry, the tested form may be a part): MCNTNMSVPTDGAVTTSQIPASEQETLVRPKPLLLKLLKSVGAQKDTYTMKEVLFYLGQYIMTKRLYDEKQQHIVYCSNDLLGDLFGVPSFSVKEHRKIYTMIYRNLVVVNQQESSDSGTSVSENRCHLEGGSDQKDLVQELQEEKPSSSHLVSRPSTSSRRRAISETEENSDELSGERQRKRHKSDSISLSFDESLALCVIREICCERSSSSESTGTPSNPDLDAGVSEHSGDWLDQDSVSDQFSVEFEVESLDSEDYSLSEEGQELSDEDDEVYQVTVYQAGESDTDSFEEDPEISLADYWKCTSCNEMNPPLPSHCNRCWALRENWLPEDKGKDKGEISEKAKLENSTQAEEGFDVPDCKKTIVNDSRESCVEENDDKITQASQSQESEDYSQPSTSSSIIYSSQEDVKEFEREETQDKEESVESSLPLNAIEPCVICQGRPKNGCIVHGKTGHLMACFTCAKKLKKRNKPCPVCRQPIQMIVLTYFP

[10] = molecular target: T2, Oxysterols receptor LXR-beta (Homo sapiens, UniProt P55055); experiment: LXR agonists, Gal4 luciferase reporter, dose response, counter-screen for ssDAF-12 agonist project, cell-based, luminescence, HEK293, S. stercoralis campaign (AID 720737); type: functional; details: read-out: IC50 (the source's name)
T2 sequence (P55055 whole entry): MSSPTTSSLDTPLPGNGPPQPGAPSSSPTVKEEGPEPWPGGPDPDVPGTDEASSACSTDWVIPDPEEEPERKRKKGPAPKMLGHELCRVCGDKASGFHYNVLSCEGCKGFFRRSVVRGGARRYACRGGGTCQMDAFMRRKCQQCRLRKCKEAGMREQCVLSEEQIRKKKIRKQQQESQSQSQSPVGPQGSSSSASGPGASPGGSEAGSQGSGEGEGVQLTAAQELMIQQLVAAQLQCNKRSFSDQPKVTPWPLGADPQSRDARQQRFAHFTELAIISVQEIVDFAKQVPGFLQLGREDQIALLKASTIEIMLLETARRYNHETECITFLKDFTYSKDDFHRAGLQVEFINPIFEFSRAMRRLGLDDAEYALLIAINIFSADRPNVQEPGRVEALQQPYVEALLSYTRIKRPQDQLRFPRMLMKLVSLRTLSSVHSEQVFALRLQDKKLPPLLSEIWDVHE

[11] = Luminescence-based cell-based high throughput dose response assay to identify activators of the DAF-12 from the parasite S. stercoralis (ssDAF-12).; type: functional
[12] = test system: BJ; experiment: cells; type: functional, cell-based; details: Homo sapiens
[13] = molecular target: Paired box protein Pax-8 (Homo sapiens, UniProt Q06710); experiment: inhibitors of PAX8-driven TPO luciferase reporter, dose response, RMG-I cells, cherry-pick (AID 687027); type: functional, cell-based;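 note: luciferase reporter driven by Pax8 target thyroperoxidase promoter measured by SteadyGlo luminescence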
Paired box protein Pax-8, sequence (Q06710 whole entry): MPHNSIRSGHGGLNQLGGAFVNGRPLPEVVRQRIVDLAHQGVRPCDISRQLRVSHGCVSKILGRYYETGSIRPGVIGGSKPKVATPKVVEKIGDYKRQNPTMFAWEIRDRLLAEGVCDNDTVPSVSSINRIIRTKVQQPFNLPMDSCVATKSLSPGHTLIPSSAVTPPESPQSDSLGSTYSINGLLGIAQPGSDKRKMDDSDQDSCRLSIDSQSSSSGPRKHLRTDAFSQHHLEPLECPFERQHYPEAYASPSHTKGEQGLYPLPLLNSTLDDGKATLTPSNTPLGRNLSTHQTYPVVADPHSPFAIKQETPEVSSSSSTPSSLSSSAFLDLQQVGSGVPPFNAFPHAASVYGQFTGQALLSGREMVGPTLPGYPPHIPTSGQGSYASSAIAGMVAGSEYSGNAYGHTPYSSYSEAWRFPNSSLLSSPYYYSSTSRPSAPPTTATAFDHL

[14] = cytotoxicity toward DRD oncogenic fibroblasts, dose response, cell-based, non-viral oncogenic, luminescence (AID 1934); type: functional; details: Homo sapiens
[15] = Luminescence-based dose response cell-based high throughput screening assay for cytotoxic compounds using the IEC-6 intestinal epithelial cell line. [Related pubchem assays: 1858 (Summary AID.), 1825 (Counterscreen.), 1907 (Confirmation screen.)]; type: functional
[16] = cytotoxicity in HEK-293T cells, dose response, cytotoxicity control for TCR NF-kB inhibitor project, luminescence, T-cell screen hits (AID 489026); type: functional, cell-based;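 note: cells exposed to compound about 14 hours before the viability readout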
[17] = test system: BJ; experiment: cytotoxicity toward Ras-transformed BJeLR fibroblasts, dose response, cell-based, alamar blue fluorescence, cherrypicked samples (AID 2631); type: functional; details: Homo sapiens;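 note: confirmatory dose-response assay in RAS-dependent BJ fibroblasts engineered with TERT, LT and ST, with cytotoxicity read by fluorescence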
[18] = test system: BJ; experiment: cytotoxicity toward BJ-TERT fibroblasts, dose response, cell-based, RAS-independent, luminescence (AID 1933); type: functional; details: Homo sapiens
[19] = Luminescence Cell-Based Dose Confirmation to Identify Activators of 5'UTR Stem-Loop Driven Alpha-Synuclein mRNA Translation in H4 Neuroglioblastoma Cells. [Related pubchem assays: 1829 (Project Summary), 1814 (Primary HTS)]; type: functional
[20] = Luminescence Cell-Based Dose Response to Identify Activators of 5'UTR Stem-Loop Driven Prion Protein mRNA Translation in H4-C Neuroglioblastoma Cells. [Related pubchem assays: 1829 (Project Summary), 1814 (Primary HTS)]; type: functional
[21] = Luminescence Cell-Based Dose Response to Identify Activators of Luciferase Translation or Activity in H4-C Neuroglioblastoma Cells. [Related pubchem assays: 1829 (Project Summary), 1814 (Primary HTS)]; type: functional
[22] = Luminescence Cell-Based Dose Response HTS to Identify Activators of Luciferase Translation or Activity in H4 […] Cells. [Related pubchem assays: 1829 (Project Summary), 1814 (Primary HTS)]; type: functional
[23] = Luminescence Cell-Based Dose Confirmation HTS to Identify Activators of 5'UTR Stem-Loop Driven Alpha-Synuclein mRNA Translation in H4 Neuroglioblastoma Cells. [Related pubchem assays: 1829 (Project Summary), 1814 (Primary HTS)]; type: functional
[24] = test system: H4; experiment: Luminescence Cell-Based Dose Response HTS to Identify Activators of 5'UTR Stem-Loop Driven Prion Protein mRNA Translation in H4 Neuroglioblastoma Cells. [Related pubchem assays: 1829 (Project Summary), 1814 (Primary HTS)]; type: functional; details: Homo sapiens
[25] = P. falciparum Dd2 growth inhibitors, dose response, SYBR Green, dry powder samples, set 9 (AID 1159568); type: functional, cell-based
[26] = P. falciparum Dd2 growth inhibitors, dose response, SYBR Green, cherry-picked samples (AID 1159567); type: functional, cell-based
[27] = P. falciparum 3D7-ScDHODH growth inhibitors, dose response, SYBR Green, dry powder samples (AID 1159570); type: functional, cell-based;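 note: parasite growth measured after 72 hours of compound exposure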
[28] = P. falciparum Dd2 blood-stage growth inhibition, dose response, SYBR Green fluorescence, erythrocytes, dry powder, set 2 (AID 1159574); type: functional, cell-based
[29] = P. falciparum Dd2 growth inhibitors, dose response, SYBR Green, dry powder samples (AID 1159566); type: functional, cell-based;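 note: potency for growth inhibition with lower SYBR green DNA signal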
[30] = P. falciparum ATP4 D1247Y mutant growth inhibitors, dose response, NITD609-resistant line, SYBR Green, dry powder (AID 1159571); type: functional, cell-based;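 note: parasites synchronized at ring stage by sorbitol before testing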
[31] = molecular target: Phospholipase D2 (Homo sapiens, UniProt O14939); experiment: PLD2 Cellular Concentration Response Study.; type: functional
Phospholipase D2, sequence (O14939 whole entry): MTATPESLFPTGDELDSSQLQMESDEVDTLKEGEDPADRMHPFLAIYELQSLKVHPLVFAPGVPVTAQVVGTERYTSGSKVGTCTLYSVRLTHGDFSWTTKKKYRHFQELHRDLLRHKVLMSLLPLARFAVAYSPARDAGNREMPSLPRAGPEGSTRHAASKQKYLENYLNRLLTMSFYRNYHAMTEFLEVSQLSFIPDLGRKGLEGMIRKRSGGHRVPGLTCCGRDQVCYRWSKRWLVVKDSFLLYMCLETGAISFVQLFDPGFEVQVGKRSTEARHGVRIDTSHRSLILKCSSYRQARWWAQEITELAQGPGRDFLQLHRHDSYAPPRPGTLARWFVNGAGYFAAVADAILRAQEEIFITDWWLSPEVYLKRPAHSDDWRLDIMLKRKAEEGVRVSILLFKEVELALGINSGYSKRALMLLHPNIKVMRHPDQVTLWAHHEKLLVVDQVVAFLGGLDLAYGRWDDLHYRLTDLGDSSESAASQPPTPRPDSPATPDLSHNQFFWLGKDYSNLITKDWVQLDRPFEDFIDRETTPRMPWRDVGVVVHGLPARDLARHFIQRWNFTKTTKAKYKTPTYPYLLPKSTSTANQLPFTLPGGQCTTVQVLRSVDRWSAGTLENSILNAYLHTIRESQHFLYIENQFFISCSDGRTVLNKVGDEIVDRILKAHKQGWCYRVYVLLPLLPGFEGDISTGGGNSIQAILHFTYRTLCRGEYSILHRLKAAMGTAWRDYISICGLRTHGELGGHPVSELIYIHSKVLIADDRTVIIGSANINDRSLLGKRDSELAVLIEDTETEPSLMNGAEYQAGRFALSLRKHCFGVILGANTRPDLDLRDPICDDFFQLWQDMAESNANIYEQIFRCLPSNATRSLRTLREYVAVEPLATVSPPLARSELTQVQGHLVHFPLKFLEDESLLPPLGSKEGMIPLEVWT

[32] = molecular target: Phospholipase D1 (Homo sapiens, UniProt Q13393); experiment: PLD1 Cellular Concentration Response Study.; type: functional
[33] = half-maximal inhibitory concentration for glucagon-like peptide-1 release, STC-1 cell line, dose-response (AID 1117345); type: functional, cell-based
[34] = Dose-response inhibition of insulin secretion in a rat insulinoma line at 5 mM glucose (AID 1117331); type: functional, cell-based; details: INS-1E
[35] = Luminescence Cell-Based Dose Retest to Confirm Inhibitors of Cancer Stem Cells. [Related pubchem assays (depositor defined):AID2717, AID2721]; type: functional, Homo sapiens; details: Homo sapiens
[36] = Glucagon-like peptide 1 release potency, NCI-H716 cell line, dose-response, half-maximal inhibitory concentration (AID 1117344); type: functional, cell-based

In the case of CCC(=O)Nc1cc(OC)c(NC(=O)c2ccccc2)cc1OC, the EC50 [1] was 1.85 µM (active).

For Cc1cccc(N2CCN(C3=C(Cl)C(=O)N(c4ccc(Cl)c(Cl)c4)C3=O)CC2)c1C, the IC50 [2] was > 100 µM (not active), the IC50 [3] was > 100 µM (not active) and the IC50 [4] was > 100 µM (not active).

For O=C(Nc1ccc(F)cc1)c1cccs1, the IC50 [5] was > 30 µM (not active).

In the case of C/C(NC1CCCC1)=C(/C#N)C(N)=O, the IC50 [6] was 33.3 µM (not active).

With Cc1nnc(SCCN2CCOCC2)c2nn(-c3ccccc3F)c(C)c12 the EC50 [7] was > 112 µM (not active), the EC50 [8] was > 112 µM (not active) and the EC50 [9] was 2.43 µM (not active).

With CC(=O)NC1(c2ccccc2)CCN(c2cc(C)nc(-c3ccccc3)n2)CC1 the EC50 [10] was > 67.5 µM (inactive) and the IC50 [11] was > 67.5 µM (inactive).

For COc1ccc(/C=N/NC(=O)c2[nH]c3ccc(Br)cc3c2-c2ccccc2)cc1, the EC50 [12] was 34.8 µM (inconclusive), the AC50 [13] was < 0.5 µM (active) and the EC50 [14] was 0.361 µM (active). For the same compound, the IC50 [15] was 0.296 µM (active), the IC50 [16] was > 80 µM (inactive) and the EC50 [17] was 0.0886 µM (active). For the same compound, the EC50 [18] was < 0.12 µM (inconclusive).

With COc1cccc(NC(=O)C(=O)N/N=C(\C)CC(=O)Nc2ccc(NC(C)=O)cc2)c1 the EC50 [19] was 1.25 µM (active), the EC50 [20] was > 12 µM (not active) and the EC50 [21] was > 12 µM (not active). For the same compound, the EC50 [22] was 9.31 µM (active), the EC50 [23] was < 0.1 µM (active) and the EC50 [24] was 25.6 µM (active).

With O=C(C1CCOCC1)N1C[C@@H]2[C@H](c3ccccc31)[C@H](CO)N2C(=O)Cc1ccccn1 the AC50 [25] was 22.9 µM (active).

With O=C(c1ccccc1F)N1CC(=O)N2[C@H](CO)[C@H](c3ccc(-c4cccnc4)cc3)[C@H]2C1 the AC50 [26] was < 0.3 µM (active), the AC50 [27] was 0.197 µM (active) and the AC50 [28] was 0.427 µM (active). The AC50 [29] was 0.129 µM (active) and the AC50 [30] was 0.148 µM (active).

For O=C(NCCN1CCC2(CC1)C(=O)NCN2Cc1ccccc1Br)c1ccc2ccccc2c1, the IC50 [31] was 0.16 µM (active) and the IC50 [32] was 1.68 µM (active).

For O=C1Nc2ccc(Cl)cc2[C@@](C#CC2CC2)(C(F)(F)F)O1 [EFAVIRENZ], the IC50 [33] was 2.48 µM (active), the IC50 [34] was 3.87 µM (active) and the AC50 [35] was 6.38 µM (active). For the same compound, the IC50 [36] was 21.2 µM (inactive).
